The source of these data is patent US8852628B1, “Transdermal drug delivery system for diclofenac” (Noven Pharmaceuticals, Inc., priority 2009, dated 2014).

The nature of this data set: in-vitro permeation study utilizing modified Franz cells (flux). The conditions noted are these: diclofenac sodium, acid and potassium as single entities in formulations similar to the examples; particularly with oleic acid and dipropylene glycol. It is filed as in vitro ADME, human. On the procedure:
The flux data was collected from an in-vitro permeation study utilizing modified Franz cells with stratum corneum obtained from human cadaver skin by the heat separation technique. The receiver solution for this study was 0.9% NaCl with 0.01% NaN3 in deionized water. Franz cells were maintained at about 32° C. for the duration of this study. Flux samples were analyzed by HPLC.

Take `O=C(O)Cc1ccccc1Nc1c(Cl)cccc1Cl` [diclofenac potassium]: the “flux rate, drug forms fluxed as single entities” value is “highest rate”.
